# Where “and” joins values, the source holds several entries; their conditions need not be identical. Identical values can stand only once.
# Tested on: patients with prior myocardial infarction (CARE study)
# Experiment: CARE aligned analysis (prospective and case/control design, white males): association of genotypes with pravastatin efficacy (Tables 13, 15)
# Format: in vivo, human
# Protocol: The data presented in Table 8 based on an association of genotypes with pravastatin efficacy of the CARE samples were further analyzed and presented in Table 13. The further analysis was performed to align the data obtained from the analysis of the CARE samples, which was a prospective study, to the analysis of the WOSCOP samples, which was a case/control study. Table 13 also presents an analysis of the association of genotypes with pravastatin efficacy in the WOSCOPs samples. Relative to the analysis performed on the data presented in Table 8, there are two significant differences to determine if the SNP influenced pravastatin efficacy. Data obtained from the CARE samples were separated by study design into two groups, those in the prospective study design group and those in the case/control study design group. The original care study contained 16 protocol defined cardiovascular disease defined endpoints and 150 other phenotypes. […] The control groups used to compare the data were also divided into two groups, the “all possible” control group and the “cleaner” control group. […] Because the participants in the WOSCOPs trial were all white males, only data obtained from white males in the CARE study were analysed. Data from the “all possible” and “cleaner” controls were compared to data obtained from the cases in the prospective study design while only data from “cleaner” controls were compared to cases in the case/control study design. The data from the case/control cohorts were analysed using conditional logistic regression (as opposed to logistic regression used for the original anaylsis).
# The anaylsis was refined as described for both Tables 13 and 14.
# [1] = CD6 hCV2553030, CARE, Case/Control, F MI/SD/NF MI
# [2] = CD6 hCV2553030, CARE, Prospective, F MI/SD/NF MI
# [3] = CD6 hCV25922320, CARE, Case/Control, F MI/SD/NF MI
# [4] = CD6 hCV25922320, CARE, Case/Control, F MI/SD/NF MI, listed as Pravastatin
# [5] = CD6 hCV25922320, CARE, Prospective, F MI/SD/NF MI
# [6] = CD163 hCV25591528, CARE Case/Control, F&NF MI
# [7] = CD163 hCV25591528, CARE Prospective, F&NF MI, listed as Pravastatin
# [8] = CD163 hCV25591528, CARE, Case/Control, F MI/SD/NF MI, listed as Pravastatin
# [9] = CD163 hCV25591528, CARE, Prospective, F MI/SD/NF MI
# [10] = COL2A1 hCV3276198, CARE Case/Control, F&NF MI
# [11] = COL11A1 hCV8400671, CARE Case/Control, F&NF MI
# [12] = CR1 hCV25598594, CARE Case/Control, F&NF MI
# [13] = CR1 hCV25598594, CARE Prospective, F&NF MI
# [14] = CR1 hCV25598594, CARE, Case/Control, F MI/SD/NF MI
# [15] = CR1 hCV25598594, CARE, Prospective, F MI/SD/NF MI
# [16] = CXCL16 hCV8718197, CARE Prospective, F&NF MI
# [17] = CXCL16 hCV8718197, CARE, Case/Control, F MI/SD/NF MI
# [18] = CXCL16 hCV8718197, CARE, Prospective, F MI/SD/NF MI
# [19] = CYBA hCV2038, CARE Case/Control, F&NF MI
# [20] = ELN hCV1253630, CARE, Case/Control, F MI/SD/NF MI
# [21] = ELN hCV1253630, CARE, Prospective, F MI/SD/NF MI
# [22] = F7 hCV783138, CARE Case/Control, F&NF MI
smiles,measurement,setting,value
CC[C@H](C)C(=O)O[C@H]1C[C@H](O)C=C2C=C[C@H](C)[C@H](CC[C@@H](O)C[C@@H](O)CC(=O)O)[C@H]21 [pravastatin],"Pravastatin vs placebo odds ratio, 2 rare alleles","CAPN10 hCV25614016, CARE, Prospective, F MI/SD/NF MI",0.90 and 0.78
same,OR of fatal MI/sudden death/non-fatal MI in the presence of statin treatment,"CARE, hCV2442143, 0 rare alleles",0.42
same,OR of fatal MI/sudden death/non-fatal MI in the presence of statin treatment,"CARE, hCV2442143, one rare allele, not statistically significant",0.78
same,OR of fatal MI/sudden death/non-fatal MI in the presence of statin treatment,"CARE, hCV2442143, two rare alleles, not statistically significant",1.16
same,"2 Rare Alleles n/total, Pravastatin Patients","CD6 hCV2553030, CARE Case/Control, F&NF MI",2/91 and 2/63
same,"2 Rare Alleles n/total, Pravastatin Patients","CD6 hCV2553030, CARE Prospective, F&NF MI",2/92 and 2/64
same,"Pravastatin vs placebo odds ratio, 0 rare alleles",[1],0.97 and 0.92
same,"Pravastatin vs placebo odds ratio, 1 rare allele",[1],0.80 and 0.68
same,"Pravastatin vs placebo odds ratio, 2 rare alleles",[1],0.06 and 0.04
same,"Pravastatin vs placebo odds ratio, 0 rare alleles",[2],0.97 and 0.88
same,"Pravastatin vs placebo odds ratio, 1 rare allele",[2],0.81 and 0.72
same,"Pravastatin vs placebo odds ratio, 2 rare alleles",[2],0.06 and 0.04
same,"2 rare alleles n/total (%), pravastatin patients",[3],(17.9%)
same,"Pravastatin vs placebo odds ratio, 2 rare alleles",[3],1.44
same,"Pravastatin vs placebo odds ratio, 0 rare alleles",[4],0.57 and 0.49
same,"Pravastatin vs placebo odds ratio, 1 rare allele",[4],1.39 and 1.36
same,"Pravastatin vs placebo odds ratio, 2 rare alleles",[4],1.09
same,"2 rare alleles n/total (%), pravastatin patients",[5],(17.9%)
same,"Pravastatin vs placebo odds ratio, 0 rare alleles",[5],0.58 and 0.51
same,"Pravastatin vs placebo odds ratio, 1 rare allele",[5],1.39 and 1.27
same,"Pravastatin vs placebo odds ratio, 2 rare alleles",[5],1.09 and 1.17
same,"2 Rare Alleles n/total, Pravastatin Patients",[6],4/24 and 4/21
same,"Pravastatin vs placebo odds ratio, 2 rare alleles",[6],1.23 and 0.64
same,"Pravastatin vs placebo odds ratio, 2 rare alleles","CD163 hCV25591528, CARE Prospective, F&NF MI",0.59
same,"2 Rare Alleles n/total, Pravastatin Patients",[7],4/25 and 4/21
same,"Pravastatin vs placebo odds ratio, 2 rare alleles",[7],1.14
same,"Pravastatin vs placebo odds ratio, 2 rare alleles","CD163 hCV25591528, CARE, Case/Control, F MI/SD/NF MI",0.99
same,"Pravastatin vs placebo odds ratio, 0 rare alleles",[8],0.96 and 0.88
same,"Pravastatin vs placebo odds ratio, 1 rare allele",[8],0.29 and 0.27
same,"Pravastatin vs placebo odds ratio, 2 rare alleles",[8],1.97
same,"Pravastatin vs placebo odds ratio, 0 rare alleles",[9],0.97 and 0.86
same,"Pravastatin vs placebo odds ratio, 1 rare allele",[9],0.30 and 0.28
same,"Pravastatin vs placebo odds ratio, 2 rare alleles",[9],0.88
same,"2 Rare Alleles (%), Pravastatin Patients",[10],(35.0%)
same,"2 Rare Alleles n/total, Pravastatin Patients",[10],7/20
same,"2 Rare Alleles (%), Pravastatin Patients",[11],(1.9%)
same,"2 Rare Alleles n/total, Pravastatin Patients",[11],1/52
same,"2 Rare Alleles (%), Pravastatin Patients",[12],(0.0%)
same,"2 Rare Alleles n/total, Pravastatin Patients",[12],0/0
same,"2 Rare Alleles (%), Pravastatin Patients",[13],(0.0%)
same,"2 Rare Alleles n/total, Pravastatin Patients",[13],0/0
same,"Pravastatin vs placebo odds ratio, 0 rare alleles",[14],0.86 and 0.78
same,"Pravastatin vs placebo odds ratio, 1 rare allele",[14],0.09 and 0.07
same,"Pravastatin vs placebo odds ratio, 0 rare alleles",[15],0.87 and 0.78
same,"Pravastatin vs placebo odds ratio, 1 rare allele",[15],0.08 and 0.06
same,"2 Rare Alleles n/total, Pravastatin Patients","CXCL16 hCV8718197, CARE Case/Control, F&NF MI",32/233 and 32/160
same,"2 Rare Alleles (%), Pravastatin Patients",[16],(19.8%)
same,"2 Rare Alleles n/total, Pravastatin Patients",[16],32/237 and 32/162
same,"2 rare alleles n/total (%), pravastatin patients",[17],(17.4%)
same,"Pravastatin vs placebo odds ratio, 0 rare alleles",[17],0.38
same,"Pravastatin vs placebo odds ratio, 1 rare allele",[17],0.91
same,"Pravastatin vs placebo odds ratio, 2 rare alleles",[17],1.12
same,"2 rare alleles n/total (%), pravastatin patients",[18],(17.2%)
same,"Pravastatin vs placebo odds ratio, 0 rare alleles",[18],0.38
same,"Pravastatin vs placebo odds ratio, 1 rare allele",[18],0.92
same,"Pravastatin vs placebo odds ratio, 2 rare alleles",[18],1.06
same,"2 Rare Alleles (%), Pravastatin Patients",[19],(16.9%)
same,"2 Rare Alleles n/total, Pravastatin Patients",[19],23/136
same,"2 rare alleles n/total (%), pravastatin patients",[20],(18.3%)
same,"Pravastatin vs placebo odds ratio, 0 rare alleles",[20],0.53
same,"Pravastatin vs placebo odds ratio, 1 rare allele",[20],0.70
same,"Pravastatin vs placebo odds ratio, 2 rare alleles",[20],1.64
same,"2 rare alleles n/total (%), pravastatin patients",[21],(18.2%)
same,"Pravastatin vs placebo odds ratio, 0 rare alleles",[21],0.52
same,"Pravastatin vs placebo odds ratio, 1 rare allele",[21],0.71
same,"Pravastatin vs placebo odds ratio, 2 rare alleles",[21],1.60
same,"2 Rare Alleles n/total, Pravastatin Patients","ELN hCV1253830, CARE Case/Control, F&NF MI",28/204 and 28/133
same,"2 Rare Alleles n/total, Pravastatin Patients","ELN hCV1253830, CARE Prospective, F&NF MI",28/208 and 28/136
same,"2 Rare Alleles (%), Pravastatin Patients",[22],(7.7%)
same,"2 Rare Alleles n/total, Pravastatin Patients",[22],1/13 and 1/9
same,"2 Rare Alleles (%), Pravastatin Patients","F7 hCV783138, CARE Prospective, F&NF MI",(7.7%)
